Tests used:
[1] = tested on: primary human liver hepatocytes (hPH); assay: ABE protein levels by ELISA after mRNA transfection of primary human hepatocytes; assay type: cell-based; conditions: ABE mRNA transfected to hPH cells, FIG. 6
Protocol: Primary human liver hepatocytes (hPH), primary cynomolgus liver hepatocytes (cPH), or primary mouse liver hepatocytes (mPH) are cultured per the manufacturer's protocol. In brief, the cells are thawed and resuspended in hepatocyte thawing medium followed by centrifugation at 100 g for 10 min at 4° C. The supernatant is discarded, and the pelleted cells resuspended in hepatocyte plating medium. Each vial contains ˜5 million cells that are used for plating one 24-well plate. Plated cells are allowed to settle and adhere for 4-6 h in a tissue culture incubator at 37° C. under 5% CO2 atmosphere. After incubation, cells are checked for monolayer formation. The incubating media is then replaced with fresh hepatocyte maintenance media The cells thus are ready for transfection using a transfection agent such as MessengerMAX. Solution A: desired amount of single guide RNA (sgRNA) is mixed with 1:1 wt ratio of mRNA in OptiMEM. Solution B: MessengerMAX in OptiMEM. After mixing solutions A and B, the mixture is incubated at room temperature for 20 minutes, and then the incubated solution is added dropwise to each well of cells. The cells are then allowed to remain at 37° C. for 3 days. […] For example, mRNA with 5′ end region motifs, 1007a and 1107a, were transfected to hPH cells as described above, the cells were lysed, and ABE protein levels were measured by ELISA. […]

mouse PCSK9 (mPCSK9) = assay: In vivo base editing in mouse with LNP of sgRNA and capped ABE mRNA (NGS editing efficiency); conditions: LNP with sgRNA targeting mPCSK9 and ABE mRNA; mice; FIG. 7
Protocol: Lipid nanoparticles (LNPs) are generated by microfluidic mixing using the Precision Nanosystems NanoAssemblr system according to the manufacturer's protocol, with some optimization for individual payloads. The resulting LNPs are filtered using 0.2-micron filters and stored at 4° C. or frozen at […]
LNPs used in these studies are prepared as described above in Example 6 (A), comprising chemically synthesized sgRNAs targeting the mouse ANGPTL3 (mANGPTL3) and/or mouse PCSK9 (mPCSK9) genes and SpCas9 or ABE8.8 mRNA in a 1:1 weight ratio, are administered to C57BL/6 mice (n=5) intravenously via the lateral tail vein or retro-orbital sinus in a total volume of 5-10 ml/kg. […]
Paired-end reads are analyzed with the CRISPResso2 pipeline (Clement, K. et al., Nat. Biotech. 2019, 37, 224-226). Briefly, low-quality reads are filtered out, adapter sequences are trimmed from the reads, and the paired-end reads are merged and aligned to the amplicon sequence. The editing percentage is calculated as the number of reads supporting […], over the total number of aligned reads. For ABE, the editing percentage is calculated as the number of reads supporting […], over the total number of aligned reads. […]

## COC1C(OP([O-])(=S)OCC2OC(n3cnc4c(=O)[nH]c(N)nc43)C(O)C2O)C(COP(=O)(O)OP(=O)(O)OP(=O)(O)OCC2OC(n3c[n+](C)c4c(=O)[nH]c(N)nc43)C(O)C2O)OC1n1cnc2c(N)ncnc21 (centres unmarked) [1007a, m^7G(ppp)Am(ps)G]
[1]
  ABE protein levels as compared to mRNA with 5′ end region motif 1002a: similar
Mouse PCSK9 (mPCSK9)
  hepatocyte editing levels as compared to mRNA with 5′ end region motif 1002a: similar

Reference: patent US12264175B2, “Compositions and methods for capping RNAS” (Verve Therapeutics, Inc., priority 2020, dated 2025)
